In patent US10414808B2 (priority 2012, dated 2019):
Read-outs that look alike come from different tables or passages of the source.

Key:
[1] = tested on: mouse model of inflammatory pain (100% CFA); conditions: in vivo
[2] = molecular target: hNav1.7 channel (Homo sapiens, UniProt Q15858, W1161R); format: cell-based
[3] = tested on: rat model of nociceptive pain; conditions: in vivo
[4] = tested on: rat model of monoarthritis induced by 50% intraplantar CFA; conditions: in vivo
[5] = tested on: mouse spared nerve injury model of neuropathic pain; conditions: in vivo
[6] = mouse, in vivo
[7] = tested on: mice; conditions: mouse, in vivo
[8] = tested on: mouse model of CFA-induced inflammatory pain; conditions: in vivo
[9] = tested on: rodent models of acute and inflammatory pain; conditions: in vivo; cited from earlier work
[10] = in vivo; conditions: mouse, sc
[11] = molecular target: Nav1.7 (Homo sapiens, UniProt Q15858, W1161R); experiment: cell-based
[12] = molecular target: Nav1.2 (Homo sapiens, UniProt Q99250); experiment: cell-based
Chain of Nav1.2 (Q99250 whole entry, looked up): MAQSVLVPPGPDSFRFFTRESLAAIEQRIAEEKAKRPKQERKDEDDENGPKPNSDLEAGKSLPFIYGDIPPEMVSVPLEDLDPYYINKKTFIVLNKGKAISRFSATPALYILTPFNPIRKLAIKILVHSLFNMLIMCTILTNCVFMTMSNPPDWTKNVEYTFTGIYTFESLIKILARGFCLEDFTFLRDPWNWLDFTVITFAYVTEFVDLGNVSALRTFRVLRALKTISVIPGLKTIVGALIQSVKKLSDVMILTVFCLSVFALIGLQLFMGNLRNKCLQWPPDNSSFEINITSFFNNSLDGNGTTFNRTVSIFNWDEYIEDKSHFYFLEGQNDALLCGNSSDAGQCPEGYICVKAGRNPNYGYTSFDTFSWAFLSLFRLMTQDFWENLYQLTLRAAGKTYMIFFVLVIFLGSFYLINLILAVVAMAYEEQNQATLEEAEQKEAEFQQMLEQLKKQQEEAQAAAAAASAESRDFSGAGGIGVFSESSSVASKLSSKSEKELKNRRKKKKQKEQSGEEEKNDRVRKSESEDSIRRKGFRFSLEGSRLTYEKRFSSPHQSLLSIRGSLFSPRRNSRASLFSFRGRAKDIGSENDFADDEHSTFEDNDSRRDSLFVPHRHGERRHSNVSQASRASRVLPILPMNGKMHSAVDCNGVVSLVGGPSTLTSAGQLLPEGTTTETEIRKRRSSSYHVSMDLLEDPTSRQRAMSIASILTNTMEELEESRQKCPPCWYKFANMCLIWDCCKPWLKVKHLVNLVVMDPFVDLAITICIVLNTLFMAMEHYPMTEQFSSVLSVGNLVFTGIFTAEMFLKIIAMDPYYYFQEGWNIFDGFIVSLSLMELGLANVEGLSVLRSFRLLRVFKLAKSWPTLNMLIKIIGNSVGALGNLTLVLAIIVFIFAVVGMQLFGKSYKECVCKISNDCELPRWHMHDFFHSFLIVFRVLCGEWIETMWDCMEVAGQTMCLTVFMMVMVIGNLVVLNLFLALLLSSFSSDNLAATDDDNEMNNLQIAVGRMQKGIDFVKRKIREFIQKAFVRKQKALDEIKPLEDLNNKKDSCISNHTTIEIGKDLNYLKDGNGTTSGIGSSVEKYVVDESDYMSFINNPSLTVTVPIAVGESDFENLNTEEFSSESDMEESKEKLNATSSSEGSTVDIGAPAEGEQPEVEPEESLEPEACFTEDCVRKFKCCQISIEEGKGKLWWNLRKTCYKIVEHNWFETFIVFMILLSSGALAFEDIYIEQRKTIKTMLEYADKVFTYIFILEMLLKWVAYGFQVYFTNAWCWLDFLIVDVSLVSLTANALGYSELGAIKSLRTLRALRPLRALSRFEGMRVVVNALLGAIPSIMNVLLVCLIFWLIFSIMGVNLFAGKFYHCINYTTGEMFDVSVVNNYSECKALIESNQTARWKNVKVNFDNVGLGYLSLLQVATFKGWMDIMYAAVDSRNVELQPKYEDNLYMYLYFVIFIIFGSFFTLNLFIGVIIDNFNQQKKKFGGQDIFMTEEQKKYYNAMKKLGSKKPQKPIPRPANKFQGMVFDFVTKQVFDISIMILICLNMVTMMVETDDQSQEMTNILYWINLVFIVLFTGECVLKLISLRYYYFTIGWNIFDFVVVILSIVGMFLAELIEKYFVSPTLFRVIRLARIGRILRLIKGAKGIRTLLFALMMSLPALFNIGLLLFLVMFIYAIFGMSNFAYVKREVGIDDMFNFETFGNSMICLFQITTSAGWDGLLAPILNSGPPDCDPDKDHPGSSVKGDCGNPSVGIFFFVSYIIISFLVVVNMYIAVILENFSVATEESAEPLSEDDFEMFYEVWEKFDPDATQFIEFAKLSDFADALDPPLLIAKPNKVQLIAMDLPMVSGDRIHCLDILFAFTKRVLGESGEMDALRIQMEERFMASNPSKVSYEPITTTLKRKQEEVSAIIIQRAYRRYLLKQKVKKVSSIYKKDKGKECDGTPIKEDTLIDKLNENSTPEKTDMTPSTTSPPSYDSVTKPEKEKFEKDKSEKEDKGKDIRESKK

Chain of Nav1.7 (Q15858 whole entry W1161R, looked up): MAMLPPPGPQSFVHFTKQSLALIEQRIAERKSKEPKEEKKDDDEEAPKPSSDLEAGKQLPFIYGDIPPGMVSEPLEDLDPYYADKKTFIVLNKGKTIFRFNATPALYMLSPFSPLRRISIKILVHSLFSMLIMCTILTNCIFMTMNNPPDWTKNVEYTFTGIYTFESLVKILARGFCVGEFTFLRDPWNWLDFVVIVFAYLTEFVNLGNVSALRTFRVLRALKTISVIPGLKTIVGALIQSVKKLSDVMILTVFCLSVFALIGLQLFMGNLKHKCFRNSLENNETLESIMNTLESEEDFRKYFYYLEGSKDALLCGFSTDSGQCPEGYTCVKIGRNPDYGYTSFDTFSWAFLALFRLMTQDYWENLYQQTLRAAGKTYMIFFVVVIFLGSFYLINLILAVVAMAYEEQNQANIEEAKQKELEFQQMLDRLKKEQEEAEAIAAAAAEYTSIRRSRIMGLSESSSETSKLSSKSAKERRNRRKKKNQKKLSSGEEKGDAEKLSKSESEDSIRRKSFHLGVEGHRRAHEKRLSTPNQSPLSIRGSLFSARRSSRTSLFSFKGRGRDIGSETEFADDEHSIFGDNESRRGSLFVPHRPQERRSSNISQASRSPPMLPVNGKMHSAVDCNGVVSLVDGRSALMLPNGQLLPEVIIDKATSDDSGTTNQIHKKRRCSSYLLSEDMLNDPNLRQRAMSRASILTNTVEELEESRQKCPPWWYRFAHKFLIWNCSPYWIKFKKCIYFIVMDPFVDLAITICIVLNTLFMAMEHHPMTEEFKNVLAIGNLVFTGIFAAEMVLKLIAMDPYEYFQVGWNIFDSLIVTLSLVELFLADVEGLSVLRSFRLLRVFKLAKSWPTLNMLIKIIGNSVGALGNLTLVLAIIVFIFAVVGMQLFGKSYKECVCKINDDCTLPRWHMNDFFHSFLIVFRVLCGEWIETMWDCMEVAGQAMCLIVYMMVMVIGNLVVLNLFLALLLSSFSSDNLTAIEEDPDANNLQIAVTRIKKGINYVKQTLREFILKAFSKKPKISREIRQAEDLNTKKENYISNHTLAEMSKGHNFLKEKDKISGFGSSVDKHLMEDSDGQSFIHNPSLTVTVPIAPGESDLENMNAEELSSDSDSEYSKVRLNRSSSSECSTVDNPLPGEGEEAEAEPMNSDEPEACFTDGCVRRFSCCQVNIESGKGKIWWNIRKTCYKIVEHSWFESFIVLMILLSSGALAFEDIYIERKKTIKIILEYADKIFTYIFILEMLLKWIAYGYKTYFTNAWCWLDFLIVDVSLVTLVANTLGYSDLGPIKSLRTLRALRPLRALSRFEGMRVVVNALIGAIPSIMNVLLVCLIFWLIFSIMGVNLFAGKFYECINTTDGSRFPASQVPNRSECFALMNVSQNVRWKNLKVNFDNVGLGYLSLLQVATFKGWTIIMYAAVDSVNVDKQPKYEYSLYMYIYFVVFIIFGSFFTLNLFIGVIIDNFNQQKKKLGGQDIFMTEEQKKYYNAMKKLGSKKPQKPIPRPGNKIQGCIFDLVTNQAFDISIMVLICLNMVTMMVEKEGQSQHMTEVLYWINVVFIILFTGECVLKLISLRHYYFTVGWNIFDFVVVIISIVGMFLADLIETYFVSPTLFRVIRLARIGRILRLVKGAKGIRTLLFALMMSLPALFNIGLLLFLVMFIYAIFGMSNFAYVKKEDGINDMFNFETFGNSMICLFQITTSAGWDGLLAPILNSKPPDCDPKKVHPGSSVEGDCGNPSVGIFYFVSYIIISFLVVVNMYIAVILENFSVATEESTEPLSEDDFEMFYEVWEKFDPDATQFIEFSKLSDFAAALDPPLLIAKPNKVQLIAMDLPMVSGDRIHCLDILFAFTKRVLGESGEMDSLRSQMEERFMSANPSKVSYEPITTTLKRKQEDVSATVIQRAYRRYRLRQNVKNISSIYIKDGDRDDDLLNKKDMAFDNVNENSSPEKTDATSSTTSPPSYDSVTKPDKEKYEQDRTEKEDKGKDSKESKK

NCC1(CC(=O)O)CCCCC1 [gabapentin]
CFA-induced tactile allodynia ([1]; po, 150 mg/kg): reduced tactile allodynia albeit to a lesser extent than ProTx-II

CC[C@H](C)[C@H](NC(=O)[C@H](CCC(N)=O)NC(=O)[C@H](Cc1ccc(O)cc1)NC(=O)[C@H](CCCCN)NC(=O)[C@@H]1CSSC[C@@H]2NC(=O)[C@H](CCC(N)=O)NC(=O)[C@H](CC(=O)O)NC(=O)[C@H](CC(N)=O)NC(=O)[C@H](CO)NC(=O)[C@@H]3CCCN3C(=O)[C@H](CC(N)=O)NC(=O)[C@@H]3CSSC[C@H](NC(=O)[C@H](C(C)C)NC(=O)[C@H](CC(C)C)NC(=O)[C@H](CCCCN)NC(=O)[C@H](CO)NC(=O)[C@H](CO)NC(=O)[C@H](CCCCN)NC(=O)[C@H](CSSC[C@H](NC(=O)[C@H](CCC(=O)O)NC(=O)[C@@H]4CCCN4C(=O)CN)C(=O)N[C@@H](CC(C)C)C(=O)N[C@@H](CCC(=O)O)C(=O)N[C@@H]([C@@H](C)CC)C(=O)N[C@@H](Cc4ccccc4)C(=O)N[C@@H](CCCCN)C(=O)N[C@@H](C)C(=O)N3)NC2=O)C(=O)N[C@@H](CO)C(=O)N[C@@H](CCCNC(=N)N)C(=O)N[C@@H](CCCCN)C(=O)N[C@@H]([C@@H](C)O)C(=O)N[C@@H](CCCNC(=N)N)C(=O)N[C@@H](Cc2c[nH]c3ccccc23)C(=O)N1)C(=O)NCC(=O)N[C@@H](CCCCN)C(=O)O [Recombinant Huwentoxin-IV]
ratio of IC50 for Nav1.2 to IC50 for Nav1.7 [2]: about 2.143

CSCC[C@@H]1NC(=O)CNC(=O)[C@H](CCC(=O)O)NC(=O)[C@@H]2CSSC[C@H](NC(=O)[C@@H](N)Cc3ccc(O)cc3)C(=O)N[C@@H](CCC(N)=O)C(=O)N[C@@H](CCCCN)C(=O)N[C@@H](Cc3c[nH]c4ccccc34)C(=O)N[C@@H](CCSC)C(=O)N[C@@H](Cc3c[nH]c4ccccc34)C(=O)N[C@@H]([C@@H](C)O)C(=O)N[C@H]3CSSC[C@H](NC(=O)[C@H](C(C)C)NC1=O)C(=O)N[C@@H](CCCNC(=N)N)C(=O)N[C@@H](CC(C)C)C(=O)N[C@@H](Cc1c[nH]c4ccccc14)C(=O)N[C@H](C(=O)N[C@@H](CCCCN)C(=O)N[C@@H](CCCCN)C(=O)N[C@@H](CCCCN)C(=O)N[C@@H](CC(C)C)C(=O)N[C@@H](Cc1c[nH]c4ccccc14)C(=O)O)CSSC[C@H](NC(=O)[C@H](CCCCN)NC(=O)[C@H](CCCNC(=N)N)NC(=O)[C@H](CCC(=O)O)NC(=O)[C@H](CO)NC(=O)[C@H](CC(=O)O)NC3=O)C(=O)N2 [ProTx-II]
AUC of gram thresholds (mean vehicle AUC subtracted), comparison between dose groups [3]: significantly different except between the 0.3 and 3 nmole doses | paw pressure threshold vs vehicle-treated animals ([3]; sc): increased thresholds significantly | paw pressure threshold, dose dependence ([3]; sc): dose-dependent increase | tactile threshold vs vehicle injected animals [4]: significantly increased | CFA-induced tactile allodynia [1]: profound anti-allodynic effect | efficacy in tactile (Von Frey) pain assay [5]: not efficacious | Est Cp [6]: BLOQ | Behav Obs [7]: normal | tolerability [7]: well tolerated | motor impairment [8]: did not produce any obvious motor impairment | tactile threshold [8]: significantly increased | thermal threshold [8]: significantly increased | efficacy in rodent models of acute and inflammatory pain [9]: non-efficacious | level at time molar at 48 h ([10]; 45.6 ug/day): 50 nM | level at time molar at 120 h ([10]; 45.6 ug/day): 55 nM | level at time molar at 168 h ([10]; 45.6 ug/day): 83 nM | level at time molar at 72 h ([10]; 228 ug/day): 224 nM

CC[C@H](C)[C@H](NC(=O)[C@H](CCC(N)=O)NC(=O)[C@H](Cc1ccc(O)cc1)NC(=O)[C@H](CCCCN)NC(=O)[C@@H]1CSSC[C@@H]2NC(=O)[C@H](CCC(N)=O)NC(=O)[C@H](CC(=O)O)NC(=O)[C@H](CC(N)=O)NC(=O)[C@H](CO)NC(=O)[C@@H]3CCCN3C(=O)[C@H](CC(N)=O)NC(=O)[C@@H]3CSSC[C@H](NC(=O)[C@H](C(C)C)NC(=O)[C@H](CC(C)C)NC(=O)[C@H](CCCCN)NC(=O)[C@H](CO)NC(=O)[C@H](CO)NC(=O)[C@H](CCCCN)NC(=O)[C@H](CSSC[C@H](NC(=O)[C@H](C)NC(=O)[C@@H]4CCCN4C(=O)CN)C(=O)N[C@@H](CC(C)C)C(=O)N[C@@H](CCC(=O)O)C(=O)N[C@@H]([C@@H](C)CC)C(=O)N[C@@H](Cc4ccccc4)C(=O)N[C@@H](CCCCN)C(=O)N[C@@H](C)C(=O)N3)NC2=O)C(=O)N[C@@H](CO)C(=O)N[C@@H](CCCNC(=N)N)C(=O)N[C@@H](CCCCN)C(=O)N[C@@H]([C@@H](C)O)C(=O)N[C@@H](CCCNC(=N)N)C(=O)N[C@@H](Cc2c[nH]c3ccccc23)C(=O)N1)C(=O)NCC(=O)N[C@@H](CCCCN)C(=O)O [NV1D82 | 243]
IC50 [11]: 40 nM | IC50 [12]: 50 nM
